The values below come from patent US20230029259A1, “COMBINATION OF IAP INHIBITORS AND PARP OR MEK INHIBITORS OR OTHER CHEMOTHERAPEUTIC AGENTS” (Ascentage Pharma (Suzhou) Co., Ltd., priority 2019, published 2023).

Test [1] has as its system pancreatic cancer patient derived xenograft model PA6265. Briefly: Antitumor activity in subcutaneous pancreatic cancer PDX model PA6265 (Biological Example 1). The format is in vivo, BALB/c nude mice. As to conditions: olaparib 50 mg/kg p.o. BID, trametinib 0.3 mg/kg p.o. QD, 4 weeks; for T/C (%) @ D29: day 29 (text: day 28), Example 24 10 mg/kg i.v. QW; for RTV @ D29: day 29, Example 24 10 mg/kg i.v. QW. From the text: (§1) Balb/c nude, female, 4-6 weeks, weighing approximately 18-22 g, which were purchased from GemPharmatech Co., Ltd (Nanjing, Jiangsu).
(§2) All of the PDX models were originally established from a surgically resected clinical sample (cancer type: pancreatic adenocarcinoma), and implanted in nude mice defined as passage 0 (P0). The next passage implanted from P0 tumor was defined as passage1 (P1), and so on during continual implantation in mice. The frozen tumor fragments were revived in NOD SCID mice, when the tumors were developed to suitable size, they were passaged to Balb/c nude mice. The P4-P7 tumors were used for the study.
(§3) Each group consisted of 5 tumor-bearing mice.
(§4) The protocol and any amendment(s) or procedures involving the care and use of animals in this study were reviewed and approved by the Institutional Animal Care and Use Committee (IACUC) of CrownBio prior to execution. During the study, the care and use of animals were conducted in accordance with the regulations of the Association for Assessment and Accreditation of Laboratory Animal Care (AAALAC). After tumor inoculation, the animals were checked daily for morbidity and mortality. During routine monitoring, the animals were checked for any effects of tumor growth and treatments on behavior such as mobility, food and water consumption, body weight gain/loss, eye/hair matting and any other abnormalities. Mortality and observed clinical signs were recorded for individual animals in detail.
(§5) After randomization, tumor volumes were measured twice per week in two dimensions using a caliper, and the volume was expressed in mm^3 using the formula: […]
(§6) where V is tumor volume, L is tumor length (the longest tumor dimension) and W is tumor width (perpendicular to L). Body weight was measured twice per week. Dosing as well as tumor and body weight measurements were conducted in a Laminar Flow Cabinet. The body weights and tumor volumes were measured by using StudyDirector™ software (version 3.1.399.19).
(§7) Relative tumor volume (RTV) was calculated using the following formula: […]
(§8) where V1 and Vt are the average tumor volumes on the first day of treatment (day 1) and the average tumor volumes on a certain time point (day t).
(§9) Synergy score was calculated using the following formula described in Clarke R. Issues in experimental design and endpoint analysis in the study of experimental cytotoxic agents in vivo in breast cancer and other models[J]. Breast Cancer Research & Treatment, 1997, 46(2-3):255-278, which is incorporated by reference in its entirety:
(§10) Synergy score=((A/C)×(B/C))/(AB/C),
(§11) where A is RTV value of drug A; B is RTV value of drug B; C is RTV value of vehicle control. AB is RTV value of combination treatment with A and B. Synergy scores: >1 represents synergistic, =1 represents additive, <1 represents antagonistic (referring to Gould S E et al. Translational value of mouse models in oncology drug development. Nature medicine. 2015 21, 431-439).
(§12) Standard NCI procedures were used to calculate tumor parameters. Percent tumor growth inhibition (% T/C) was calculated as the mean RTV of treated tumors (T) divided by the mean RTV of control tumors (C)×100%. The percentage T/C value is an indication of antitumor effectiveness: a value of T/C<42% is considered significant antitumor activity by the NCI. A T/C value <10% is considered to indicate highly significant antitumor activity, and is the level used by the NCI to justify a clinical trial if toxicity and certain other requirements are met (termed DN-2 level activity). A body weight loss nadir (mean of group) of greater than 20%, or greater than 20% of drug deaths are considered to indicate an excessively toxic dosage.
(§13) The antitumor activity curves of test articles were plotted with the observation time on the X-axis, and corresponding tumor volume (geometric mean) on the Y-axis. A two-tailed t-test was employed to analyze the statistical significance of any difference between the treatment group and the control group. […]

The subject of test [2] is PA1170 pancreatic cancer patient-derived xenograft model. Briefly: Antitumor activity in PA1170 pancreatic cancer PDX model, confirmation study (Biological Example 3). The format is in vivo, mice. As to conditions: for RTV @ D29 / T/C (%) @ D29: day 29, Example 24 10 mg/kg IV, olaparib 50 mg/kg p.o. BID, trametinib 0.3 mg/kg p.o. QD, 4 weeks.
Test [3] concerns pancreatic cancer patient derived xenograft (PDX) model PA1170. Put plainly: Antitumor activity in subcutaneous pancreatic cancer PDX model PA1170 (Biological Example 1). The test is classed as in vivo, BALB/c nude mice. As to conditions: day 28, Example 24 10 mg/kg i.v. QW, olaparib 50 mg/kg p.o. BID, trametinib 0.3 mg/kg p.o. QD, 4 ws.
From the text: as §1, §2, §3, §4, §5, §6, §7, §8, §9, §10, §11, §12, §13

The test system of test [4] is murine pancreatic cancer model mPA6115. Briefly: Antitumor activity in murine pancreatic cancer model mPA6115 (Biological Example 2).
From the text: C57BL/6, female, 6-8 weeks, weighing approximately 18-20 g, which were purchased from Shanghai Lingchang Biotechnology Co., Ltd (Shanghai, China).
mPA6115 is a murine pancreatic cancer cell line carries a conditional mutant KRAS (KrasLSL-G12D/WT), a constitutive deletion of TP53 (p53−/−) and a Cre driven by the promoter of Pdx1 gene.
Fresh tumor tissues from mice bearing established primary cancer tissues were harvested and cut into small pieces (approximately 2-3 mm in diameter). Tumor fragments, harvested from donor mice, were inoculated subcutaneously at the upper right dorsal flank into corresponding female C57BL/6 mice for tumor development. Treatments were started when the average tumor size reached approximately 150 mm^3. Randomization were performed based on “Matched distribution” method/“Stratified” method using the multi-task method (StudyDirector™ software, version 3.1.399.19)/randomized block design. Each group consisted of 6 tumor-bearing mice.
Test [5] has as its system Panc-1 human pancreatic cancer xenograft model. Particulars: Panc-1 xenograft, day 27; abraxane 30 mg/kg i.v. QW×3w, gemcitabine 120 mg/kg i.p. QW×3w.
The mark [6] stands for this setting: mPA6115, day 21, Example 24 0.2 mg/kg i.v. BIW×3w, abraxane 15 mg/kg i.v. QW×3w, gemcitabine 120 mg/kg i.p. QW×3w.

Several values for one entry are separate records, joined by “and”; a condition that tells them apart may be missing. Equal entries are not always repeated.

With `O=C(c1cc(Cc2n[nH]c(=O)c3ccccc23)ccc1F)N1CCN(C(=O)C2CC2)CC1` [Olaparib], the “T/C (%) @ D29” value in test [1] is on record as 71.78%; in test [1] (listed as olaparib), 72%; in test [2], 22.33%; in test [2] (listed as olaparib) it was 22.3%. For the same molecule, the entries for the “RTV @ D29” value in test [1] and in test [2] were 4.07 ± 0.51 and 1.90 ± 1.13, respectively. Besides, in test [3], the “RTV @ D28” value is on record as 3.09 ± 0.73. The figures for the “T/C (%) @ D28” value in test [3] and in test [3] (listed as olaparib) were 32.15% and 32%, respectively.

With `CC(=O)Nc1cccc(-n2c(=O)n(C3CC3)c(=O)c3c(Nc4ccc(I)cc4F)n(C)c(=O)c(C)c32)c1` [Trametinib], the “T/C (%) @ D29” value in test [1] is given as 76.01%; in test [1] (listed as trametinib), 76%; in test [2], 86.25%; in test [2] (listed as trametinib) it was 86.3%. Also, the “RTV @ D29” value in test [1] amounted to 4.31 ± 0.98; in test [2], 7.34 ± 1.49. In test [3], the “RTV @ D28” value worked out at 6.59 ± 0.41. Moreover, the results for the “T/C (%) @ D28” value in test [3] and in test [3] (listed as trametinib) were 68.57% and 69%, respectively.

For `CN[C@@H](C)C(=O)N[C@H]1CN(S(=O)(=O)c2cccc(S(=O)(=O)N3CC[C@H]4CC[C@@H](C(=O)NC(c5ccccc5)c5ccccc5)N4C(=O)[C@@H](NC(=O)[C@H](C)NC)C3)c2)CC[C@H]2CCC(C(=O)NC(c3ccccc3)c3ccccc3)N2C1=O` (stereo partly drawn) [the compound of Example 24], in test [2], the “RTV @ D29” value stood at 4.29 ± 1.83; the “T/C (%) @ D29” value is 50.4% and 50.41%. Moreover, in test [2] (responders/animals (CR, SD)), the “Response @ D28” value is recorded as 1/5 SD. For the same molecule, the “antitumor effect (in words)” value in test [4] (mPA6115, day 21, single agent 0.2 mg/kg i.v. BIW×3w) is “no antitumor effect”. In test [4] (setting [6]), the “RTV @ D21” value was 32.77 ± 10.36 and the “T/C (%) @ D21” value is 144.28%. Also, the “Response @ D21” value in test [4] (mPA6115, day 21, animals with PD or died / animals) is recorded as 5/6 PD, 1/6 died. Further, in test [5], the “RTV @ D27” value was found to be 2.63 ± 0.51; the “T/C (%) @ D27” value was 66.1% and 66.08%.
